Results as given in PubChem BioAssay (NCI).
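These data come from cells grown in 96-well plates and exposed to compound for 48 hours at five concentrations. Abbreviation: GI50, concentration required for 50% inhibition of growth. Definition used: TGI = concentration required for complete inhibition of growth.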

What was measured:
Assay in all cases: inhibition of tumour cell growth, NCI panel, 48 h
[1] = system: IGROV1 ovarian
[2] = system: HCC-2998 colon
[3] = system: SR leukemia
[4] = system: SN12C renal
[5] = system: U251 CNS
[6] = system: MOLT-4 leukemia
[7] = system: NCI-H522 lung
[8] = system: OVCAR-4 ovarian
[9] = system: DU-145 prostate
[10] = system: NCI-H226 lung
[11] = system: COLO 205 colon
[12] = system: UO-31 renal
[13] = system: RXF 393 renal
[14] = system: MDA-MB-435
[15] = system: PC-3 prostate
[16] = system: T-47D breast
[17] = system: OVCAR-3 ovarian
[18] = system: HCT-116 colon
[19] = system: NCI-H23 lung
[20] = system: TK-10 renal
[21] = system: SNB-19 CNS
[22] = system: MCF7 breast
[23] = system: HCT-15 colon
[24] = system: EKVX NSCLC
[25] = system: UACC-257 melanoma
[26] = system: BT-549 breast
[27] = system: RPMI-8226 leukemia
[28] = system: CCRF-CEM leukemia
[29] = system: HL-60(TB) leukemia

Nc1ccc(S(=O)(=O)c2ccc(N)cc2)cc1
GI50 [1]: > 100 µM
TGI [1]: > 100 µM
GI50 [2]: > 100 µM
TGI [2]: > 100 µM
GI50 [3]: > 100 µM
TGI [3]: > 100 µM
GI50 [4]: > 100 µM
TGI [4]: > 100 µM
GI50 [5]: > 100 µM
TGI [5]: > 100 µM
GI50 [6]: > 100 µM
TGI [6]: > 100 µM
GI50 [7]: > 100 µM
TGI [7]: > 100 µM
GI50 [8]: > 100 µM
TGI [8]: > 100 µM
GI50 [9]: > 100 µM
TGI [9]: > 100 µM
GI50 [10]: > 100 µM
TGI [10]: > 100 µM
GI50 [11]: > 100 µM
TGI [11]: > 100 µM
GI50 [12]: > 100 µM
TGI [12]: > 100 µM
GI50 [13]: > 100 µM
TGI [13]: > 100 µM
GI50 [14]: > 100 µM
TGI [14]: > 100 µM
GI50 [15]: > 100 µM
TGI [15]: > 100 µM
GI50 [16]: > 100 µM
TGI [16]: > 100 µM
GI50 [17]: > 100 µM
TGI [17]: > 100 µM
GI50 [18]: > 100 µM
TGI [18]: > 100 µM
GI50 [19]: > 100 µM
TGI [19]: > 100 µM
GI50 [20]: > 100 µM
TGI [20]: > 100 µM
GI50 [21]: > 100 µM
TGI [21]: > 100 µM
GI50 [22]: > 100 µM
TGI [22]: > 100 µM
GI50 [23]: > 100 µM
TGI [23]: > 100 µM
GI50 [24]: > 100 µM
TGI [24]: > 100 µM
GI50 [25]: > 100 µM
TGI [25]: > 100 µM
GI50 [26]: > 100 µM
TGI [26]: > 100 µM
GI50 [27]: > 100 µM
TGI [27]: > 100 µM
GI50 [28]: > 100 µM
TGI [28]: > 100 µM
GI50 [29]: > 100 µM
TGI [29]: > 100 µM
